Where “and” joins values, the source holds several entries; their conditions need not be identical. Equal values may be shown once. Read-outs that look alike come from different tables or passages of the source.
What was measured:
[1] = test system: CHO cell line that expresses an antibody; assay: Batch experiment with the substances according to the invention (Example 1); assay type: cell-based, Chinese hamster; conditions: batch mode, substance 0.5-1 g/l, basal medium glucose 4.7 g/l, glutamine […]
[2] = test system: CHO cell line that expresses an antibody; conditions: fed-batch, basal medium 4 mM glutamine, feed with 3 g/l Ala-Gln and 3 g/l Gly-Gln, substance 0.5-1 g/l
Protocol: (§1) A CHO cell line that expresses an antibody was used for the experiments.
The experiments were carried out either in batch mode or in fed-batch mode. When the process was carried out in fed-batch mode, the process was first started in batch mode in the above-mentioned basal medium and cells were cultivated in this manner for 1-4 days. After 1-4 days the cells were supplemented with a feed medium, i.e. the process was switched to fed-batch mode. Feed took place at regular intervals. In fed-batch experiments, a protein-free and serum-free feed medium from the company HyQ (R05.2 supplement, Cat. No.: SH30584.04, Lot No.: APF21457G) was used.
From the stock solutions, the substances were put at the desired final concentration in culture tubes. The various culture tubes prepared in this way were finally inoculated with the antibody-producing CHO-clone at a target inoculation cell concentration (1-3×10^5/ml). For this, the corresponding amount of inoculum cells was calculated and the required amount of inoculum cell suspension was centrifuged. […] In this way the desired inoculation cell concentration was adjusted in the cell suspension being investigated. The cell suspension thus prepared was proportioned in the culture tubes, which were provided with the substances according to the invention beforehand. The culture tubes were incubated at 37° C., and 8% CO2 atmosphere, with shaking. The culture tubes were cultivated for 8-11 days in the batch mode or in the fed-batch mode. Samples for offline measurement of the variables were taken from the culture vessels at regular intervals, for example daily or on every third day. The metabolic variables and cell concentrations of the samples were measured. Cell concentration and cell vitality were measured with a CeDex instrument. The metabolic variables (glucose, lactate, glutamine and ammonium) were determined with an analyzer (BioProfile 100).
(§2) The following final concentrations of the substances according to the invention were established in a nutrient medium after inoculation:
The substances according to the invention were tested under fed-batch conditions. […] The feed medium used was from the company HyQ (R05.2 supplement, Cat. No.: SH30584.04, Lot No.: APF21457G). 3 g/l alanyl-glutamine (Ala-Gin) and 3 g/l glycyl-glutamine (Gly-Gln) were added to the feed medium.

[3] = test system: CHO cell line that expresses an antibody; assay: Fed-batch experiment with the substances according to the invention (Example 2, Table 2); assay type: cell-based, Chinese hamster; parameters: Viabil.: concentration or dose not given beside the values
Source text: Feed took place at regular intervals.

[4] = test system: CHO cell line that expresses an antibody; conditions: fed-batch, glutamine-free basal and feed media, substance 0.5-1 g/l
Source text: as §1
This is a serum-free, protein-free nutrient medium. It is a ready-made, sterile-filtered nutrient medium.
After 1-4 days the cells were supplemented with a feed medium, i.e. the process was switched to fed-batch mode. Feed took place at regular intervals. In fed-batch experiments, a protein-free and serum-free feed medium from the company HyQ (R05.2 supplement, Cat. No.: SH30584.04, Lot No.: APF21457G) was used.
All substances (chemicals) used according to the invention were obtained from the company Sigma and stock solutions were prepared from them. From the stock solutions, the substances were put at the desired final concentration in culture tubes. The various culture tubes prepared in this way were finally inoculated with the antibody-producing CHO-clone at a target inoculation cell concentration (1-3×10^5/ml). For this, the corresponding amount of inoculum cells was calculated and the required amount of inoculum cell suspension was centrifuged. […] In this way the desired inoculation cell concentration was adjusted in the cell suspension being investigated. The cell suspension thus prepared was proportioned in the culture tubes, which were provided with the substances according to the invention beforehand. The culture tubes were incubated at 37° C., and 8% CO2 atmosphere, with shaking. The culture tubes were cultivated for 8-11 days in the batch mode or in the fed-batch mode. Samples for offline measurement of the variables were taken from the culture vessels at regular intervals, for example daily or on every third day. The metabolic variables and cell concentrations of the samples were measured. Cell concentration and cell vitality were measured with a CeDex instrument. The metabolic variables (glucose, lactate, glutamine and ammonium) were determined with an analyzer (BioProfile 100).
as §2
The substances according to the invention were tested under fed-batch conditions. […] The feed medium used was from the company HyQ (R05.2 supplement, Cat. No.: SH30584.04, Lot No.: APF21457G). The feed medium was glutamine-free (Table 4).

[5] = test system: CHO cell line that expresses an antibody; conditions: fed-batch; substance 1 g/l; supernatant, ELISA; absolute value of the control set at 100%
Protocol: A CHO cell line that expresses an antibody was used for the experiments. The product concentration (antibody concentration) in the cell supernatant was determined by ELISA.
From selected samples, the product concentration (antibody concentration) in the supernatant was determined by ELISA (Table 3)

CC(O)C(=O)[O-].[Na+] (centres unmarked) [Sodium lactate]
Gln ([1]; day 0): 1.53 mM
Glucose ([1]; day 0): 4.69 g/L
Lactate ([1]; day 0): 1 g/L
NH4 ([1]; day 0): 1.22 mM
Specific Glutamin consumption (Gln/VCD) ([1]; day 0): 1.49
Specific ammonia production (NH4/VCD) ([1]; day 0): 1.18
Specific glucose consumption (Gluc/VCD) ([1]; day 0): 4.55
Specific lactate production (Lac/VCD) ([1]; day 0): 0.97
Total Cell Density TCD ([1]; day 0): 1.07 E5/ml
Viabil. ([1]; day 0): 96%
Viable Cell Density (VCD) ([1]; day 0): 1.03 E5/ml
Gln ([1]; day 3): 1.12 mM
Glucose ([1]; day 3): 4.44 g/L
Lactate ([1]; day 3): 1.15 g/L
NH4 ([1]; day 3): 1.65 mM
Specific Glutamin consumption (Gln/VCD) ([1]; day 3): 0.19
Specific ammonia production (NH4/VCD) ([1]; day 3): 0.28
Specific glucose consumption (Gluc/VCD) ([1]; day 3): 0.74
Specific lactate production (Lac/VCD) ([1]; day 3): 0.19
Total Cell Density TCD ([1]; day 3): 6 E5/ml
Viabil. ([1]; day 3): 100%
Viable Cell Density (VCD) ([1]; day 3): 6 E5/ml
Gln ([1]; day 6): 0.31 mM
Glucose ([1]; day 6): 2.82 g/L
Lactate ([1]; day 6): 1.49 g/L
NH4 ([1]; day 6): 2.07 mM
Specific Glutamin consumption (Gln/VCD) ([1]; day 6): 0.01
Specific ammonia production (NH4/VCD) ([1]; day 6): 0.05
Specific glucose consumption (Gluc/VCD) ([1]; day 6): 0.07
Specific lactate production (Lac/VCD) ([1]; day 6): 0.04
Total Cell Density TCD ([1]; day 6): 41 E5/ml
Viabil. ([1]; day 6): 99%
Viable Cell Density (VCD) ([1]; day 6): 40.6 E5/ml
Gln ([1]; day 8): 0.35 mM
Glucose ([1]; day 8): 1.79 g/L
Lactate ([1]; day 8): 1.47 g/L
NH4 ([1]; day 8): 2.63 mM
Specific Glutamin consumption (Gln/VCD) ([1]; day 8): 0.02
Specific ammonia production (NH4/VCD) ([1]; day 8): 0.12
Specific glucose consumption (Gluc/VCD) ([1]; day 8): 0.08
Specific lactate production (Lac/VCD) ([1]; day 8): 0.07
Total Cell Density TCD ([1]; day 8): 23.7 E5/ml
Viabil. ([1]; day 8): 90%
Viable Cell Density (VCD) ([1]; day 8): 21.3 E5/ml
Gln ([1]; day 11): 0.5 mM
Glucose ([1]; day 11): 0.55 g/L
Lactate ([1]; day 11): 1.04 g/L
NH4 ([1]; day 11): 3.12 mM
Specific Glutamin consumption (Gln/VCD) ([1]; day 11): 0.04
Specific ammonia production (NH4/VCD) ([1]; day 11): 0.27
Specific glucose consumption (Gluc/VCD) ([1]; day 11): 0.05
Specific lactate production (Lac/VCD) ([1]; day 11): 0.09
Total Cell Density TCD ([1]; day 11): 24.5 E5/ml
Viabil. ([1]; day 11): 47%
Viable Cell Density (VCD) ([1]; day 11): 11.4 E5/ml
Total Cell Density TCD ([2]; day 0): 1.1 E5/ml
Viabil. ([2]; day 0): 96%
Viable Cell Density (VCD) ([2]; day 0): 1.0 E5/ml
Total Cell Density TCD ([2]; day 3): 7.9 E5/ml
Viabil. ([2]; day 3): 96%
Viable Cell Density (VCD) ([2]; day 3): 7.6 E5/ml
Total Cell Density TCD ([2]; day 5): 45.2 E5/ml
Viabil. ([2]; day 5): 96%
Viable Cell Density (VCD) ([2]; day 5): 43.3 E5/ml
Total Cell Density TCD ([2]; day 7): 41.1 E5/ml
Viabil. ([2]; day 7): 83%
Viable Cell Density (VCD) ([2]; day 7): 34.3 E5/ml
Total Cell Density TCD ([2]; day 9): 34.7 E5/ml
Viabil. ([2]; day 9): 73%
Viable Cell Density (VCD) ([2]; day 9): 25.2 E5/ml
Total Cell Density TCD ([3]; day 0, fed-batch): 1.5 E5/ml
Viabil. ([3]; day 0, fed-batch): 91%
Viable Cell Density (VCD) ([3]; day 0, fed-batch): 1.37 E5/ml
Total Cell Density TCD ([3]; day 2, fed-batch): 4.6 E5/ml and 4 E5/ml
Viabil. ([3]; day 2, fed-batch): 98% and 95%
Viable Cell Density (VCD) ([3]; day 2, fed-batch): 4.5 E5/ml and 3.8 E5/ml
Total Cell Density TCD ([3]; day 5, fed-batch): 13.1 E5/ml and 14.3 E5/ml
Viabil. ([3]; day 5, fed-batch): 98%
Viable Cell Density (VCD) ([3]; day 5, fed-batch): 12.8 E5/ml and 14 E5/ml
Total Cell Density TCD ([3]; day 8, fed-batch): 52.4 E5/ml and 54.7 E5/ml
Viabil. ([3]; day 8, fed-batch): 96% and 95%
Viable Cell Density (VCD) ([3]; day 8, fed-batch): 50.2 E5/ml and 52 E5/ml
Sp. Gluc cons. ([4]; day 0): 93
Sp. NH4 prod ([4]; day 0): 98 % of control
TCD ([4]; day 0): 100 % of control
VCD ([4]; day 0): 100 % of control
Viabil. ([4]; day 0): 94%
Sp. Gluc cons. ([4]; day 3): 66
Sp. Lactate prod. ([4]; day 3): 72 % of control
Sp. NH4 prod ([4]; day 3): 63 % of control
TCD ([4]; day 3): 140 % of control
VCD ([4]; day 3): 148 % of control
Viabil. ([4]; day 3): 94%
Sp. Gluc cons. ([4]; day 5): 74
Sp. Lactate prod. ([4]; day 5): 66 % of control
Sp. NH4 prod ([4]; day 5): 72 % of control
TCD ([4]; day 5): 128 % of control
VCD ([4]; day 5): 136 % of control
Viabil. ([4]; day 5): 97%
Sp. Gluc cons. ([4]; day 7): 62
Sp. Lactate prod. ([4]; day 7): 57 % of control
Sp. NH4 prod ([4]; day 7): 66 % of control
TCD ([4]; day 7): 136 % of control
VCD ([4]; day 7): 147 % of control
Viabil. ([4]; day 7): 95%
Sp. Gluc cons. ([4]; day 9): 71
Sp. Lactate prod. ([4]; day 9): 65 % of control
Sp. NH4 prod ([4]; day 9): 73 % of control
TCD ([4]; day 9): 131 % of control
VCD ([4]; day 9): 133 % of control
Viabil. ([4]; day 9): 95%
Antibody concentration [5]: 124%

O=C(O)CCC(=O)C(=O)O [α-Keto-glutarate]
Viabil. ([2]; day 0): 96%
Viabil. ([2]; day 3): 93%
Viabil. ([2]; day 5): 96%
Viabil. ([2]; day 7): 84%
Viabil. ([2]; day 9): 67%
Viabil. ([3]; day 0, fed-batch): 91%
Viabil. ([3]; day 2, fed-batch): 97%
Viabil. ([3]; day 5, fed-batch): 97%
Viabil. ([3]; day 8, fed-batch): 95%
Sp. Gluc cons. ([4]; day 0): 94
Sp. NH4 prod ([4]; day 0): 100 % of control
TCD ([4]; day 0): 100 % of control
VCD ([4]; day 0): 100 % of control
Viabil. ([4]; day 0): 94%
Sp. Gluc cons. ([4]; day 3): 98
Sp. Lactate prod. ([4]; day 3): 70 % of control
Sp. NH4 prod ([4]; day 3): 94 % of control
TCD ([4]; day 3): 94 % of control
VCD ([4]; day 3): 103 % of control
Viabil. ([4]; day 3): 96%
Sp. Gluc cons. ([4]; day 5): 98
Sp. Lactate prod. ([4]; day 5): 72 % of control
Sp. NH4 prod ([4]; day 5): 94 % of control
TCD ([4]; day 5): 103 % of control
Viabil. ([4]; day 5): 93%
Sp. Gluc cons. ([4]; day 7): 95
Sp. Lactate prod. ([4]; day 7): 72 % of control
Sp. NH4 prod ([4]; day 7): 95 % of control
TCD ([4]; day 7): 96 % of control
VCD ([4]; day 7): 99 % of control
Viabil. ([4]; day 7): 90%
Sp. Gluc cons. ([4]; day 9): 109
Sp. Lactate prod. ([4]; day 9): 79 % of control
Sp. NH4 prod ([4]; day 9): 103 % of control
TCD ([4]; day 9): 92 % of control
VCD ([4]; day 9): 92 % of control
Viabil. ([4]; day 9): 93%
